pIC50: −log10 of the molar value.
Assay: Biological Assay: Mutant IDH1 R132H Biochemical Assay mIDH1 catalyzes the NADPH-dependent reduction of alpha-ketoglutarate (a-KG) to (2R)-2-hydroxyglutarate (2-HG). NADPH consumption was measured by luminescent readout.The biochemical reactions were performed at 32° C. in 384-well plates using a reaction volume of 41 μL and the following assay buffer conditions: 50 mM Tris pH 7.5, 100 mM NaCl, 20 mM MgCl2, 0.05% BSA, 0.01% Brij, 1 μM NADPH, and 250 μM α-KG. The IDH1 R132H enzyme was used in a final concentration of 1.5 nM. Test compounds were used in a concentration range between 0.002 and 10 μM. The final DMSO concentration was 2.4%.The reaction was incubated for 30 minutes, then 40 μL of detection mix (0.75 μg/ml Luciferase, 0.02 U/ml Oxidoreductase, 4 μg/mL FMN, 2 μL/ml decanal/ethanol, 50 mM Tris pH 7.5, 0.5% Glycerin, 0.01% Tween-20, 0.05% BSA) was added. Luminescence was measured on a luminescent reader (10 seconds measuring time, 1 second integration period, 30% sensitivity). The decrease in luminescence is proportional to mIDH1 activity. IC50 values are determined by interpolation from plots of relative luminescence versus inhibitor concentration.

COC(=O)c1ccc2c(c1)nc(Nc1ccc(OC(F)(F)F)cc1)n2[C@@H]1C[C@H](C)CC[C@H]1C(C)C
pIC50: 7.42

— ChEMBL document CHEMBL5727242, “N-Methylbenzimidazoles as mIDH1 inhibitors” (2019)
